From patent publication US12672653B2, “Pest management” (priority 2017, dated 2026) come the findings set out here.

Converted amounts (≈) assume the structure as drawn.

In the experiment the test system is Myzus persicae. The experiment can be described thus: whole plant or invertebrate. The following applies: foliar, 96 h; for LC50: read-out: LC50 (95% CI's).

Turning to `Cc1nc(N(C)C)nc(OC(=O)N(C)C)c1C` [Pirimicarb], the mortality at 10 µg/mL stood at 20.3%, the mortality at 18.5 µg/mL came out at 36.1%, the mortality at 23 µg/mL was 82.8% and the mortality at 30 µg/mL was found to be 76.2%. For the same compound, the LC50 came to 19.7 µg/mL (≈ 82.7 µM).
On to `CC1(C)C(C=C(Cl)Cl)C1C(=O)OC(C#N)c1cccc(Oc2ccccc2)c1` (stereo not drawn) [Alpha-cypermethrin], for which the mortality at 16 µg/mL is 21.6%, the mortality at 40 µg/mL turned out to be 44.9%, the mortality at 60 µg/mL was determined as 52.2% and the mortality at 80 µg/mL was 86.9%. For the same compound, the median lethal concentration (LC50) amounted to 44.6 µg/mL (≈ 107 µM).
